Assay [1] deals with human gastric adenocarcinoma cell line (SGC-7901). The experiment in a line: tumor cell proliferation inhibition test, MTT method. Format: cell-based. The following applies: 48 hours treatment. How it is done:
(§1) The compounds of the present invention were subjected to tumor cell proliferation inhibition test, and the conventional MTT method was used as the test method.
(§2) Cell lines selected are human prostate cancer cell line (PC-3), human gastric adenocarcinoma cell line (SGC-7901), and human lung cancer cell (A-549). The culture medium was DMEM+15% NBS+double antibody.
(§3) Preparation of the sample solutions: compounds were dissolved in DMSO (Merck), and PBS (−) was add to 100 μL of the solution or homogeneous suspension. The solution or suspension was diluted with DMSO and PBS(−) to final concentrations of 0.1, 1, 10, 20, 40, 60, 80, 100 μmol/L.
(§4) Anti-tumor agent 5-fluorouracil (5-FU) was used as control and was prepared in the same way as the compounds.
(§5) Living cells mitochondria in the dehydrogenase can reduce yellow MTT to water-insoluble blue-violet product MT (MTT formazan), deposited in the cells. The amount of production is proportional to the number of living cells. […] DMSO can dissolve blue violet crystals, and the color depth is proportional to the amount contained, so the absorbance measured by the microplate reader can reflect the cell viability.
(§6) The exponential phase cells were digested and counted and seeded in 96-well plates at a density of 2×10^4/mL at 100 μl per well. After 24 hours of incubation, the cells to be tested were treated with 0.1, 1, 10, 20, 40, 60, 80, 100 μmol/L of the compounds. Each experimental group had 5 wells in each concentration, and the culture medium containing 0.4% DMSO was used as control. After 48 hours, the supernatant was discarded, and 100 μl of MTT ((2-(4,5-dimethyl-2-thiazolyl)-3,5-diphenyl-2H-tetrazole hydrobromide) (1 mg/mL) was added to each well. After another 4 hours, the supernatant was discarded, and 100 μL of DMSO was added to each well. After mixing, the absorbance was measured at 570 nm using a microplate reader. An IC50 calculation software was used to determine the half inhibitory concentration (IC50).

Assay [2] relates to human prostate cancer cell line (PC-3). The description is as above. Format: cell-based. The following applies: 48 hours treatment. On the procedure: as §1, §2, §3, §4, §5, §6
Assay [3] concerns human lung cancer cell (A-549). Described as above. Format: cell-based. The following applies: 48 hours treatment, A549. How it is done:
as §1, §2, §3, §4, §5, §6

Assay [4] concerns PC-3, SGC-7901 and A-549 tumor cells. Briefly: tumor cell proliferation inhibition test, summary over the three cell lines. Format: cell-based, human. The note with it: in the 3 cell lines tested. How it is done: as §1, §2, §6

Where only a bound is given, the exact number is not on record here.

For `CCN1C[C@]2(OC(=O)c3ccccc3NC(=O)/C(C)=C/c3ccncc3)CC[C@H](OC)[C@]34C1[C@@H](C[C@H]23)[C@@]1(O)C[C@H](OC)C[C@H]2C[C@@H]4[C@]1(O)[C@H]2OC` [Compound 10], the IC50 in assay [1], in assay [2] and in assay [3] was greater than 100 µM each time.
On to `CCN1C[C@]2(OC(=O)c3ccccc3NC(=O)/C=C/c3cc(C(C)C)ccn3)CC[C@H](OC)[C@]34C1[C@@H](C[C@H]23)[C@@]1(O)C[C@H](OC)C[C@H]2C[C@@H]4[C@]1(O)[C@H]2OC` [Compound 17], for which the IC50 in assay [1] is greater than 100 µM; in assay [2], 61.3 ± 1.24 µM; in assay [3], greater than 100 µM.
In the case of `O=c1[nH]cc(F)c(=O)[nH]1` [Compound 5-FU, 5-fluorouracil, reference compound], the IC50 was 22.4 ± 1.67 µM in assay [1], 8.17 ± 0.39 µM in assay [2] and 15.6 ± 3.54 µM in assay [3].
The matching figures for `CCN1C[C@]2(OC(=O)c3ccccc3NC(=O)/C=C/c3ccc(C)nc3)CC[C@H](OC)[C@]34C1[C@@H](C[C@H]23)[C@@]1(O)C[C@H](OC)C[C@H]2C[C@@H]4[C@]1(O)[C@H]2OC` [Compound 7]: 39.3 ± 1.74 µM, 43.3 ± 1.42 µM and 47.31 ± 0.44 µM.
Regarding `CCN1C[C@]2(OC(=O)c3ccccc3NC(=O)/C=C(\C)c3cccnc3)CC[C@H](OC)[C@]34C1[C@@H](C[C@H]23)[C@@]1(O)C[C@H](OC)C[C@H]2C[C@@H]4[C@]1(O)[C@H]2OC` [Compound 4], the IC50 was greater than 100 µM in assay [1], greater than 100 µM in assay [2] and 67.31 ± 0.44 µM in assay [3].
Turning to `CCN1C[C@]2(OC(=O)c3ccccc3NC(=O)/C=C/c3cccc(C)n3)CC[C@H](OC)[C@]34C1[C@@H](C[C@H]23)[C@@]1(O)C[C@H](OC)C[C@H]2C[C@@H]4[C@]1(O)[C@H]2OC` [Compound 19], the IC50 in assay [1] is 95.1 ± 1.92 µM; in assay [2], greater than 100 µM; in assay [3], greater than 100 µM.
As to `CCN1C[C@]2(OC(=O)c3ccccc3NC(=O)/C=C/c3cc(C)nc(C)c3)CC[C@H](OC)[C@]34C1[C@@H](C[C@H]23)[C@@]1(O)C[C@H](OC)C[C@H]2C[C@@H]4[C@]1(O)[C@H]2OC` [Compound 13], the IC50 in assay [1] was 18 ± 0.58 µM; in assay [2], 16.6 ± 1.87 µM; in assay [3] it was 32.3 ± 1.34 µM.
As for `CCN1C[C@]2(OC(=O)c3ccccc3NC(=O)/C=C/c3ccccn3)CC[C@H](OC)[C@]34C1[C@@H](C[C@H]23)[C@@]1(O)C[C@H](OC)C[C@H]2C[C@@H]4[C@]1(O)[C@H]2OC` [Compound 3], the values for the IC50 in assay [1] and in assay [2] were 13.7 ± 1.28 µM and 15.2 ± 1.18 µM, respectively.
As for `CCN1C[C@]2(OC(=O)c3ccccc3NC(=O)/C=C/c3ccnc(C)c3)CC[C@H](OC)[C@]34C1[C@@H](C[C@H]23)[C@@]1(O)C[C@H](OC)C[C@H]2C[C@@H]4[C@]1(O)[C@H]2OC` [Compound 11], the “activities compared with 5-fluorouracil” value in assay [4] is “equal or better activities than 5-fluorouracil”. Also, the results for the IC50 in assay [1], in assay [2] and in assay [3] were 10.2 ± 0.45 µM, 10.2 ± 0.78 µM and 18.6 ± 0.43 µM, respectively.
Consider `CCN1C[C@]2(OC(=O)c3ccccc3NC(=O)/C=C/c3ccncc3)CC[C@H](OC)[C@]34C1[C@@H](C[C@H]23)[C@@]1(O)C[C@H](OC)C[C@H]2C[C@@H]4[C@]1(O)[C@H]2OC` [Compound 1], for which the results for the IC50 in assay [1], in assay [2] and in assay [3] were 22.5 ± 1.35 µM, 18.1 ± 0.64 µM and 9.12 ± 2.53 µM, respectively.
As for `CCN1C[C@]2(OC(=O)c3ccccc3NC(=O)/C=C/c3cc(C)ccn3)CC[C@H](OC)[C@]34C1[C@@H](C[C@H]23)[C@@]1(O)C[C@H](OC)C[C@H]2C[C@@H]4[C@]1(O)[C@H]2OC` [Compound 14], the IC50 in assay [1] was found to be 87.02 ± 0.58 µM; in assay [2], 67.8 ± 1.3 µM; in assay [3], 41.3 ± 1.42 µM.
As for `CCN1C[C@]2(OC(=O)c3ccccc3NC(=O)/C=C/c3cccnc3)CC[C@H](OC)[C@]34C1[C@@H](C[C@H]23)[C@@]1(O)C[C@H](OC)C[C@H]2C[C@@H]4[C@]1(O)[C@H]2OC` [Compound 2], the IC50 worked out at 26.3 ± 0.37 µM in assay [1], 26.4 ± 0.36 µM in assay [2] and 13.4 ± 2.78 µM in assay [3].
For the compound `CCc1cc(/C=C/C(=O)Nc2ccccc2C(=O)O[C@@]23CC[C@H](OC)[C@]45C([C@@H](C[C@H]24)[C@@]2(O)C[C@H](OC)C[C@H]4C[C@@H]5[C@]2(O)[C@H]4OC)N(CC)C3)ccn1` [Compound 12], the “activities compared with 5-fluorouracil” value in assay [4] is recorded as “equal or better activities than 5-fluorouracil”. For the same compound, the concentration for half-maximal inhibition (IC50) in assay [1] came to 25.05 ± 0.16 µM; in assay [2], 13.86 ± 0.1 µM; in assay [3], 21.7 ± 0.45 µM.
In the case of `CCN1C[C@]2(OC(=O)c3ccccc3NC(=O)/C=C(\C)c3ccncc3)CC[C@H](OC)[C@]34C1[C@@H](C[C@H]23)[C@@]1(O)C[C@H](OC)C[C@H]2C[C@@H]4[C@]1(O)[C@H]2OC` [Compound 9], the IC50 was greater than 100 µM in assay [1], 73.37 ± 0.69 µM in assay [2] and greater than 100 µM in assay [3].
Consider `CCc1cncc(/C=C/C(=O)Nc2ccccc2C(=O)O[C@@]23CC[C@H](OC)[C@]45C([C@@H](C[C@H]24)[C@@]2(O)C[C@H](OC)C[C@H]4C[C@@H]5[C@]2(O)[C@H]4OC)N(CC)C3)c1` [Compound 8], for which the IC50 came out at 33.5 ± 1.18 µM in assay [1], 38.1 ± 0.44 µM in assay [2] and 25.1 ± 2.23 µM in assay [3].
Take `CCN1C[C@]2(OC(=O)c3ccccc3NC(=O)/C=C/c3cnccc3C)CC[C@H](OC)[C@]34C1[C@@H](C[C@H]23)[C@@]1(O)C[C@H](OC)C[C@H]2C[C@@H]4[C@]1(O)[C@H]2OC` [Compound 6]: the IC50 in assay [1] was 37.8 ± 0.42 µM; in assay [2] it was 33.5 ± 1.17 µM; in assay [3] it was 42.65 ± 0.38 µM.
With `CCc1ccnc(/C=C/C(=O)Nc2ccccc2C(=O)O[C@@]23CC[C@H](OC)[C@]45C([C@@H](C[C@H]24)[C@@]2(O)C[C@H](OC)C[C@H]4C[C@@H]5[C@]2(O)[C@H]4OC)N(CC)C3)c1` [Compound 15], the values for the IC50 in assay [1], in assay [2] and in assay [3] were 21.8 ± 1.2 µM, 44.1 ± 2.73 µM and 47.3 ± 2.56 µM, respectively.
For the compound `CCN1C[C@]2(OC(=O)c3ccccc3NC(=O)/C=C/c3cncc(C)c3)CC[C@H](OC)[C@]34C1[C@@H](C[C@H]23)[C@@]1(O)C[C@H](OC)C[C@H]2C[C@@H]4[C@]1(O)[C@H]2OC` [Compound 5], the “activities compared with 5-fluorouracil” value in assay [4] is “equal or better activities than 5-fluorouracil”. For the same compound, the IC50 in assay [1] was found to be 29.6 ± 3.54 µM; in assay [2] it was 11.3 ± 0.64 µM; in assay [3] it was 13.2 ± 0.39 µM.
As for `CCN1C[C@]2(OC(=O)c3ccccc3NC(=O)/C(C)=C/c3cccc(C)n3)CC[C@H](OC)[C@]34C1[C@@H](C[C@H]23)[C@@]1(O)C[C@H](OC)C[C@H]2C[C@@H]4[C@]1(O)[C@H]2OC` [Compound 18], the IC50 in assay [1], in assay [2] and in assay [3] was greater than 100 µM each time.
For the compound `CCN1C[C@]2(OC(=O)c3ccccc3NC(=O)/C=C/c3cc(C)cc(C)n3)CC[C@H](OC)[C@]34C1[C@@H](C[C@H]23)[C@@]1(O)C[C@H](OC)C[C@H]2C[C@@H]4[C@]1(O)[C@H]2OC` [Compound 16], the IC50 is greater than 100 µM in assay [1], 40.8 ± 2.55 µM in assay [2] and 69.3 ± 1.42 µM in assay [3].

For the origin of these results see patent US10100036B2, “Lappaconitine aza-cinnamic acid derivatives with anti-tumor activities and a method of preparing the same” (priority 2016, dated 2018).
